The test system of assay [1] is BM-derived cultures (CD45+/CD11b+ macrophages, Sca1+ monocytes). Description: Flow cytometry of BM-derived expansion cultures. Type of assay: cell-based, mouse. Particulars: BM-derived cultures, 1 μM up to P2. The procedure: (§1) c. Expansion of Human BM and Mouse BM and CB-Derived Cells Assay • 1. […] Cultures were allowed to grow for 10-14 days until adherent cells achieved 70 to 80% confluence. Mouse cultures were maintained under normal (5% CO2) or hypoxic conditions (5% CO2/5% O2) at 37 C in a cell culture incubator. Human cultures were maintained under 5% CO2 at 37 C in a humidified cell culture incubator. • 3. Adherent cells were passaged by releasing cultures from flask. Cultures were washed with 5 mL PBS and then 5 mL of 0.25% trypsin solution ([…] catalogue #07901) was added and the flasks incubated for 10 min at 37 C. To each flask, 5 mL complete medium was added to stop trypsin activity. • 4. Released cells were collected into a tube and centrifuged at 300×g for 5 minutes. • 5. Cells were resuspended in 2 mL of medium and counted using a hemocytometer. • 6. […] P1 cultures were incubated until they reached 70 to 80% confluence. • 8. Passaged cultures can be used at any time from P0 to P10 as needed for different applications.
(§2) d. Flow Cytometry Analysis • 1. Cultures of BM and CB-derived cells were trypsinized for 10 minutes and an equal volume of complete medium was added to cultures to stop trypsin activity • 2. Cell suspension was filtered through a 40 μm strainer, and cells counted using a hemocytometer • 3. Suspension was spun down at 300×g for 5 minutes. • 4. Supernatant was removed and cell pellet resuspended in FACS buffer (PBS with 2% FBS and 1 mM EDTA) • 5. A total of 1×10^5 cells in 300 μL FACS buffer was used for each flow cytometry analysis tube, including unstained, viability, compensation, and isotype controls. • 6. Cell suspensions were stained with fluorophore-labeled antibodies against CD45, CD11b, and Sca1, CD29, and viability dye. • 7. Cell suspensions were analyzed on a flow cytometer using compensation and isotype control to determine laser voltage and gating. • 8. Samples were gated on viable CD45^+ cells and 10,000 events per sample were collected. Alternatively, cells were gated on viable CD45^− cells and out of this gate the proportion of CD29+/Sca1^+ cells obtained.

Assay [2] relates to CB-derived cultures (CD45+/CD11b+ macrophages, Sca1+ monocytes). Kind of assay: Flow cytometry of CB-derived expansion cultures. In kind it is cell-based, mouse. Particulars: CB-derived cultures, 1 μM up to P2. The procedure:
as §1, §2

`COc1cc(Oc2ccnc3cc(OC)c(OC)cc23)ccc1NC(=O)NC(C)c1nccs1` (centres unmarked) [KI20227, N-{4-[(6,7-dimethoxy-4-quinolyl)oxy]-2-methoxyphenyl}-N0-[1-(1,3-thiazole-2-yl)ethyl]urea]: the “CD45+/CD11b+ mature macrophages, of viable cells” value in assay [1] and in assay [2] was less than 2% throughout.
